Source: ChEMBL document CHEMBL1150596, “Gymnasterkoreaynes A-F, cytotoxic polyacetylenes from Gymnaster koraiensis” (2002)
Values after ≈ are worked out from the molar mass of the structure shown.

Tested on: L1210
Experiment: Cytotoxicity against mouse L1210 cells after 48 hrs by WST-1 assay
Format: functional
Conditions: L1210, 48 h, read-out: ED50 (the source's name)

| SMILES | EC50 |
| --- | --- |
| C=CCCCCC/C=C\C(O)C#CC#C/C=C/C (stereo not drawn) | 10.4 µg/mL (≈ 42.9 µM) |
| C=CCCCCC/C=C\C(O)C#CC#CC(O)C=C (stereo not drawn) | 0.12 µg/mL (≈ 0.464 µM) |
| C/C=C/C#CC#C[C@H](O)CCO [GYMNASTERKOREAYNE A] | > 10 µg/mL |
| C=CCCCCC/C=C\[C@H](O)C#CC#CC1OC1C (stereo partly drawn) [GYMNASTERKOREAYNE B] | 3.3 µg/mL (≈ 12.8 µM) |
| C=CCCCCC/C=C\[C@H](O)C#CC#C[C@H](C=C)OC(C)=O [GYMNASTERKOREAYNE C] | 2.1 µg/mL (≈ 6.99 µM) |
| C=CCCCCC/C=C\[C@H](O)C#CC#C/C=C/COC(C)=O [GYMNASTERKOREAYNE D] | 7.7 µg/mL (≈ 25.6 µM) |
| C=CCCCCC/C=C/[C@H](O)C#CC#C[C@@H](O)[C@H](C)O [GYMNASTERKOREAYNE E] | 9.6 µg/mL (≈ 34.7 µM) |
| C=CCCCCC/C=C\[C@H](O)C#CC#C/C=C/CO [GYMNASTERKOREAYNE F] | 3.1 µg/mL (≈ 12 µM) |
